Consider three compounds from ChEMBL document CHEMBL1255489, “Low prevalence of fks1 hot spot 1 mutations in a worldwide collection of Candida strains” (2010).

Values after ≈ are worked out from the molar mass of the structure shown. Starred links: 1 amine or outer side, 2 acyl side, 3 side chain; linkers in the order of their positions; H or OH if unused. Positions of bridges follow the written chain, without caps; N, C: chain ends. Non-standard residues stand in square brackets, D forms with d. Residues, ends and D or L forms follow the SMILES beside them. *: point of attachment. hTyr(3S-OH,4S-OH,3'-OSO3H) = N[C@H](C(=O)O)[C@H](O)[C@@H](O)c1ccc(O)c(OS(=O)(=O)O)c1; pTerphenylCO(4''-OnC5H11) = CCCCCOc1ccc(-c2ccc(-c3ccc(C(=O)*)cc3)cc2)cc1; Orn(4R-OH,5R-OH) = O=C([C@H](C[C@@H](O)[C@@H](O)N[*:3])N[*:1])[*:2]; hTyr(3S-OH,4S-OH) = N[C@H](C(=O)O)[C@H](O)[C@@H](O)c1ccc(O)cc1; Pro(3S-OH,4S-Me) = C[C@H]1CN[C@H](C(=O)O)[C@H]1O; X1 = CCCCCOc1ccc(-c2cc(-c3ccc(C(=O)*)cc3)no2)cc1; Gln(3R-OH) = NC(=O)C[C@@H](O)[C@H](N)C(=O)O; Hyp = O=C(O)[C@@H]1C[C@@H](O)CN1 Bounds are passed on as bounds.

What all share (format): functional
In experiment [1] the test system is Nakaseomyces glabratus. Put plainly: Antifungal activity against Candida glabrata after 24 to 48 hrs by broth microdilution method.
Experiment [2] has as its system Nakaseomyces glabratus. Put plainly: Antifungal activity against Candida glabrata isolate 4707 expressing fks2 S645P mutant after 24 to 48 hrs by broth microdilution method. A general note: In broth dilution the organism is exposed to a series of concentrations in liquid medium.
For experiment [3], the system named is Nakaseomyces glabratus. The experiment can be described thus: Antifungal activity against Candida glabrata isolate 4708 expressing fks1 S645P mutant after 24 to 48 hrs by broth microdilution method.
For experiment [4], the system named is Candida albicans. The experiment can be described thus: Antifungal activity against Candida albicans expressing fks1 F641S mutant after 24 to 48 hrs by broth microdilution method.
For experiment [5], the system named is Candida tropicalis. The experiment can be described thus: Antifungal activity against Candida tropicalis isolate 4780 expressing fks1 F641S mutant after 24 to 48 hrs by broth microdilution method.
Experiment [6] has as its system Candida albicans. Put plainly: Antifungal activity against Candida albicans isolate 4700 expressing fks1 F641Y mutant after 24 to 48 hrs by broth microdilution method.
Experiment [7] has as its system Nakaseomyces glabratus. The experiment can be described thus: Antifungal activity against Candida glabrata isolate 4690 expressing fks2 L644W mutant after 24 to 48 hrs by broth microdilution method.
The subject of experiment [8] is Candida albicans. Put plainly: Antifungal activity against Candida albicans after 24 to 48 hrs by broth microdilution method.
Experiment [9] relates to Nakaseomyces glabratus. Put plainly: Antifungal activity against Candida glabrata isolate 4720 expressing fks2 S645P mutant after 24 to 48 hrs by broth microdilution method.
For experiment [10], the system named is Pichia kudriavzevii. The experiment can be described thus: Antifungal activity against Candida krusei after 24 to 48 hrs by broth microdilution method.
The subject of experiment [11] is Candida tropicalis. Put plainly: Antifungal activity against Candida tropicalis isolate 4748 expressing fks1 F641S mutant after 24 to 48 hrs by broth microdilution method.
Another experiment concerns Candida. The experiment can be described thus: Antifungal activity against Candida species after 24 to 48 hrs by broth microdilution method.
The test system of experiment [12] is Pichia kudriavzevii. The experiment can be described thus: Antifungal activity against Candida krusei ATCC 6258 expressing fks1 L644W mutant by EUCAST method.
The subject of experiment [13] is Candida tropicalis. The experiment can be described thus: Antifungal activity against Candida tropicalis expressing fks1 L644W mutant by EUCAST method.

A word on the MIC: it is the least concentration at which growth counts as inhibited. The low end stands for inhibition by little substance, the high end for a need for much substance. For `CCCCCOc1ccc(-c2ccc(-c3ccc(C(=O)N[C@H]4C[C@@H](O)[C@@H](O)NC(=O)[C@@H]5[C@@H](O)[C@@H](C)CN5C(=O)[C@H]([C@@H](C)O)NC(=O)[C@H]([C@H](O)[C@@H](O)c5ccc(O)cc5)NC(=O)[C@@H]5C[C@@H](O)CN5C(=O)[C@H]([C@@H](C)O)NC4=O)cc3)cc2)cc1` [ANIDULAFUNGIN] ({pTerphenylCO(4''-OnC5H11)}-[Orn(4R-OH,5R-OH)]T[Hyp][hTyr(3S-OH,4S-OH)]T[Pro(3S-OH,4S-Me)]; lactam 1-C), the MIC is no more than 0.12 µg/mL against Nakaseomyces glabratus [1]; 4 µg/mL (≈ 3.51 µM) in the experiment on Nakaseomyces glabratus [2]; 4 µg/mL (≈ 3.51 µM) in the experiment with Nakaseomyces glabratus [3]; 0.12 µg/mL (≈ 0.105 µM) in the experiment on Candida albicans [4]; 1 µg/mL (≈ 0.877 µM) with Candida tropicalis [5]; 0.12 µg/mL (≈ 0.105 µM) against Candida albicans [6]. Besides, the MIC against Nakaseomyces glabratus [7] is 0.12 µg/mL (≈ 0.105 µM); against Candida albicans [8], no more than 0.12 µg/mL; in the experiment with Nakaseomyces glabratus [9], 4 µg/mL (≈ 3.51 µM); with Pichia kudriavzevii [10] it was 0.06 µg/mL (≈ 0.0526 µM); against Candida tropicalis [11] it was 1 µg/mL (≈ 0.877 µM).
For the compound `CC[C@H](C)C[C@H](C)CCCCCCCCC(=O)N[C@H]1C[C@@H](O)[C@@H](NCCN)NC(=O)[C@@H]2[C@@H](O)CCN2C(=O)[C@H]([C@H](O)CCN)NC(=O)[C@H]([C@H](O)[C@@H](O)c2ccc(O)cc2)NC(=O)[C@@H]2C[C@@H](O)CN2C(=O)[C@H]([C@@H](C)O)NC1=O` [CASPOFUNGIN], the MIC with Nakaseomyces glabratus [1] is no more than 0.06 µg/mL; against Candida, no more than 0.008 µg/mL; against Nakaseomyces glabratus [2] it was 8 µg/mL (≈ 7.32 µM); against Nakaseomyces glabratus [3], no less than 8 µg/mL; in the experiment with Pichia kudriavzevii [12] it was 8 µg/mL (≈ 7.32 µM); with Candida albicans [4], 2 µg/mL (≈ 1.83 µM). Besides, the MIC was 4 µg/mL (≈ 3.66 µM) in the experiment with Candida tropicalis [5]; 1 µg/mL (≈ 0.915 µM) against Candida albicans [6]; 0.25 µg/mL (≈ 0.229 µM) against Nakaseomyces glabratus [7]; no more than 0.06 µg/mL against Candida albicans [8]; no less than 8 µg/mL against Nakaseomyces glabratus [9]; 1 µg/mL (≈ 0.915 µM) in the experiment with Pichia kudriavzevii [10]. The MIC in the experiment on Candida tropicalis [11] was determined as 4 µg/mL (≈ 3.66 µM); against Candida tropicalis [13], 1 µg/mL (≈ 0.915 µM).
As to `CCCCCOc1ccc(-c2cc(-c3ccc(C(=O)N[C@H]4C[C@@H](O)[C@@H](O)NC(=O)[C@@H]5[C@@H](O)[C@@H](C)CN5C(=O)[C@H]([C@H](O)CC(N)=O)NC(=O)[C@H]([C@H](O)[C@@H](O)c5ccc(O)c(OS(=O)(=O)O)c5)NC(=O)[C@@H]5C[C@@H](O)CN5C(=O)[C@H]([C@@H](C)O)NC4=O)cc3)no2)cc1` [MICAFUNGIN] (X1-[Orn(4R-OH,5R-OH)]T[Hyp][hTyr(3S-OH,4S-OH,3'-OSO3H)][Gln(3R-OH)][Pro(3S-OH,4S-Me)]; lactam 1-C), the MIC was no more than 0.06 µg/mL with Nakaseomyces glabratus [1]; 2 µg/mL (≈ 1.57 µM) against Nakaseomyces glabratus [2]; 4 µg/mL (≈ 3.15 µM) with Nakaseomyces glabratus [3]; 0.5 µg/mL (≈ 0.394 µM) against Candida albicans [4]; 0.5 µg/mL (≈ 0.394 µM) in the experiment on Candida tropicalis [5]; 0.25 µg/mL (≈ 0.197 µM) in the experiment with Candida albicans [6]. In addition, the MIC against Nakaseomyces glabratus [7] was 0.06 µg/mL (≈ 0.0472 µM); with Candida albicans [8] it was no more than 0.06 µg/mL; with Nakaseomyces glabratus [9] it was 4 µg/mL (≈ 3.15 µM); against Candida tropicalis [11], 0.5 µg/mL (≈ 0.394 µM).
